From patent US9309226B2, “Crystalline form I of tyrosine kinase inhibitor dimaleate and preparation methods thereof” (Jiangsu Hengrui Medicine Co., Ltd., priority 2012, dated 2016) come the findings set out here.

The nature of series [1]: Stability of the solid placed open in the air under illumination, heating and humidity, HPLC analysis. The class given is physicochemical. As to conditions: for HPLC analysis result, 60° C.: heating 60° C.; for HPLC analysis result, RH 90%: humidity RH 90%; for HPLC analysis result, Light: illumination 4500 Lux. On the procedure:
The form I crystal of SHR1258 dimaleate prepared in Example 1 and the amorphous form of SHR1258 dimaleate prepared in Example 2 were placed open in the air to test the stability in various conditions including illumination (4500 Lux), heating (60° C.), and humidity (RH 90%).

The nature of series [2]: Crystal form stability after grinding, heating and pressing, evaluated by X-ray diffraction and DSC. The class given is physicochemical. As to conditions: for Stability under grinding, pressure and heating: grinded, heated and pressed, X-ray diffraction and DSC. An excerpt:
The form I crystal of SHR1258 dimaleate prepared in Example 1 was grinded, heated and pressed, then evaluated by X-ray diffraction and DSC patterns.

The structures appear in SMILES notation. Entries after “also recorded” stand apart in the source; their conditions may differ.

For `CCOc1cc2ncc(C#N)c(Nc3ccc(OCc4ccccn4)c(Cl)c3)c2cc1NC(=O)/C=C/[C@H]1CCCN1C` [Amorphous Form], the results for the “HPLC analysis result, 60° C.” value in series [1] (day 0), in series [1] (day 5) and in series [1] (day 10) were 98.41%, 95.24% and 93.71%, respectively. For the same molecule, the “HPLC analysis result, RH 90%” value is recorded as 98.41% in series [1] (day 0), 96.95% in series [1] (day 5) and 96.31% in series [1] (day 10). Besides, the “Stability under illumination, form I crystal compared with amorphous form” value in series [1] is recorded as “similar”. Besides, the “HPLC analysis result, Light” value amounted to 98.41% in series [1] (day 0), 96.96% in series [1] (day 5) and 96.91% in series [1] (day 10).
Take `CCOc1cc2ncc(C#N)c(Nc3ccc(OCc4ccccn4)c(Cl)c3)c2cc1NC(=O)/C=C/[C@H]1CCCN1C` [Form I Crystal, (R, E)-N-(4-(3-chloro-4-(pyridin-2-yl-methoxy)phenylamino)-3-cyano-7-ethoxyquinolin-6-yl)-3-(1-methylpyrrolidino-2-yl)acrylamide dimaleate]: the “Stability under grinding, pressure and heating” value in series [2] is given as “good stability”; in series [2] (listed as form I crystal of SHR1258 dimaleate) it was “stable”. Moreover, the “Crystal (form after process)” value in series [2] (grinding for 10 min under nitrogen atmosphere), in series [2] (heating at 80° C. for 3 hours) and in series [2] (pressing into pieces) was “Form I” throughout. The figures for the “HPLC analysis result, 60° C.” value in series [1] (day 0), in series [1] (day 5) and in series [1] (day 10) were 99.65%, 98.13% and 96.86%, respectively. The “Stability under high temperature and high moisture, compared with amorphous form” value in series [1] (high temperature and high humidity, listed as form I crystal of SHR1258 dimaleate) is reported as “significantly better than the amorphous form; also recorded: more stable”. The “HPLC analysis result, RH 90%” value in series [1] (day 0) is reported as 99.65%; in series [1] (day 5), 98.35%; in series [1] (day 10), 98.35%. Further, the “Stability under illumination, form I crystal compared with amorphous form” value in series [1] is recorded as “similar”. For the same molecule, the figures for the “HPLC analysis result, Light” value in series [1] (day 0), in series [1] (day 5) and in series [1] (day 10) were 99.65%, 98.20% and 97.91%, respectively.
